According to patent publication US9556165B2 (priority 2012, dated 2017):
≈ marks a conversion by molar mass, not a printed value.

How the values were obtained:
Type in all cases: cell-based
A. baumannii ATCC15308 = assay: MIC determination, broth microdilution (CLSI); details: Acinetobacter baumannii, ATCC15308, strain 9
B. fragilis 6688 = assay: MIC determination, broth microdilution (CLSI); details: Bacteroides fragilis, 6688, strain 15; read-out: strain 15 MIC
M. morganii 126/3048 = assay: MIC determination, broth microdilution (CLSI); details: Morganella morganii, 126/3048, strain 5
C. freundii K21/3034 = assay: MIC determination, broth microdilution (CLSI); details: Citrobacter freundii, K21/3034, strain 4
strain 21 = assay: MIC determination, broth microdilution (CLSI)
C. perfringens DSM756 = assay: microbe, parasite or virus in culture; details: Clostridium perfringens, DSM756, read-out: strain 16 MIC, strain 16
M. catarrhalis ICB489 = assay: MIC determination, broth microdilution (CLSI); details: Moraxella catarrhalis, ICB489, strain 12
strain 19 = assay: MIC determination, broth microdilution (CLSI)
P. aeruginosa PAO1 = assay: MIC determination, broth microdilution (CLSI); details: Pseudomonas aeruginosa, PAO1, strain 6
[1] = tested on: P. aeruginosa 2297-con (AmpC derepressed); assay: MIC determination, broth microdilution (CLSI); details: Pseudomonas aeruginosa, read-out: strain 8 MIC, strain 8
S. maltophilia ICB7569 = assay: MIC determination, broth microdilution (CLSI); details: Stenotrophomonas maltophilia, ICB7569, strain 10
H. influenzae ATCC 49247 = assay: MIC determination, broth microdilution (CLSI); details: Haemophilus influenzae, ATCC49247, strain 13; read-out: strain 13 MIC
E. coli ATCC25922 = assay: MIC determination, broth microdilution (CLSI); details: Escherichia coli, ATCC25922, strain 1
[2] = tested on: P. aeruginosa 2297 (AmpC wt); assay: MIC determination, broth microdilution (CLSI); details: Pseudomonas aeruginosa, strain 7
E. coli J62-TEM-3 = assay: MIC determination, broth microdilution (CLSI); details: Escherichia coli, J62TEM3, read-out: strain 18 MIC, strain 18
S. pneumoniae 113 = assay: MIC determination, broth microdilution (CLSI); details: Streptococcus pneumoniae, 113, strain 14; read-out: strain 14 MIC
E. coli J62 = assay: MIC determination, broth microdilution (CLSI); details: Escherichia coli, J62, strain 17; read-out: strain 17 MIC
E. cloacae 34654 = assay: MIC determination, broth microdilution (CLSI); details: Enterobacter cloacae, 34654, strain 3
K. pneumoniae 60 = assay: MIC determination, broth microdilution (CLSI); details: Klebsiella pneumoniae, 60, strain 2
S. aureus 133 = assay: MIC determination, broth microdilution (CLSI); details: Staphylococcus aureus, 133, strain 11; read-out: strain 11 MIC
strain 20 = assay: MIC determination, broth microdilution (CLSI)

| Structure (SMILES) | MIC (A. baumannii ATCC15308) [µg/mL] | MIC (B. fragilis 6688) [µg/mL] | MIC (M. morganii 126/3048) [µg/mL] | MIC (C. freundii K21/3034) [µg/mL] | MIC (strain 21) [µg/mL] | MIC (C. perfringens DSM756) [µg/mL] | MIC (M. catarrhalis ICB489) [µg/mL] | MIC (strain 19) [µg/mL] | MIC (P. aeruginosa PAO1) [µg/mL] | MIC [1] [µg/mL] | MIC (S. maltophilia ICB7569) [µg/mL] | MIC (H. influenzae ATCC 49247) [µg/mL] | MIC (E. coli ATCC25922) [µg/mL] | MIC [2] [µg/mL] | MIC (E. coli J62-TEM-3) [µg/mL] | MIC (S. pneumoniae 113) [µg/mL] | MIC (E. coli J62) [µg/mL] | MIC (E. cloacae 34654) [µg/mL] | MIC (K. pneumoniae 60) [µg/mL] | MIC (S. aureus 133) [µg/mL] | other results |
| --- | --- | --- | --- | --- | --- | --- | --- | --- | --- | --- | --- | --- | --- | --- | --- | --- | --- | --- | --- | --- | --- |
| CC1(C)[C@H](NC(=O)/C(=N\OCCOc2ccc(C(=N)NC3CCNCC3)cc2)c2csc(N)n2)C(=O)N1OS(=O)(=O)O [Example 23, (2Z)-2-(2-Amino-1,3-thiazol-4-yl)-N-[(3S)-2,2-dimethyl-4-oxo-1-(sulfooxy)azetidin-3-yl]-2-[(2-{4-[N-(piperidin-4-yl)carbamimidoyl]phenoxy}ethoxy)imino]ethanamide] | 0.5 (≈ 0.8 µM) | 4 (≈ 6.4 µM) | 0.5 (≈ 0.8 µM) | 0.125 (≈ 0.2 µM) | 0.25 (≈ 0.4 µM) | 2 (≈ 3.2 µM) | ≤ 0.063 | 0.125 (≈ 0.2 µM) | 2 (≈ 3.2 µM) | 2 (≈ 3.2 µM) | 16 (≈ 25.6 µM) | ≤ 0.063 | 0.125 (≈ 0.2 µM) | 2 (≈ 3.2 µM) | 1 (≈ 1.6 µM) | 1 (≈ 1.6 µM) | 0.25 (≈ 0.4 µM) | 0.5 (≈ 0.8 µM) | 0.25 (≈ 0.4 µM) | ≤ 0.063 | MIC (strain 20): 0.125 µg/mL (≈ 0.2 µM) |
| CC1(C)[C@H](NC(=O)/C(=N\OCCOc2ccc(C(=N)N)nc2)c2csc(N)n2)C(=O)N1OS(=O)(=O)O [Example 4, (2Z)-2-(2-Amino-1,3-thiazol-4-yl)-2-({2-[(6-carbamimidoylpyridin-3-yl)oxy]ethoxy}imino)-N-[(3)-2,2-dimethyl-4-oxo-1-(sulfooxy)azetidin-3-yl]ethanamide] | 1 (≈ 1.84 µM) | 2 (≈ 3.69 µM) | 0.25 (≈ 0.461 µM) | 0.125 (≈ 0.23 µM) | 0.25 (≈ 0.461 µM) | 2 (≈ 3.69 µM) | ≤ 0.063 | 0.125 (≈ 0.23 µM) | 4 (≈ 7.37 µM) | 8 (≈ 14.7 µM) | 4 (≈ 7.37 µM) | ≤ 0.063 | 0.125 (≈ 0.23 µM) | 16 (≈ 29.5 µM) | 8 (≈ 14.7 µM) | 16 (≈ 29.5 µM) | 0.25 (≈ 0.461 µM) | 0.5 (≈ 0.922 µM) | 0.25 (≈ 0.461 µM) | ≤ 0.063 | MIC (strain 20): 0.25 µg/mL (≈ 0.461 µM) |
| CC1(C)[C@H](NC(=O)/C(=N\OCCOc2ccc(C(=N)N[C@H]3CCNC3)cc2)c2csc(N)n2)C(=O)N1OS(=O)(=O)O [Example 39, (2Z)-2-(2-Amino-1,3-thiazol-4-yl)-N-[(3S)-2,2-dimethyl-4-oxo-1-(sulfooxy)azetidin-3-yl]-2-{[2-(4-{N-[(3S)-pyrrolidin-3-yl]carbamimidoyl}phenoxy)ethoxy]imino}ethanamide] | 0.5 (≈ 0.819 µM) | 16 (≈ 26.2 µM) | 0.5 (≈ 0.819 µM) | 0.25 (≈ 0.409 µM) | 0.25 (≈ 0.409 µM) | 8 (≈ 13.1 µM) | 0.25 (≈ 0.409 µM) | 0.125 (≈ 0.205 µM) | 2 (≈ 3.28 µM) | 2 (≈ 3.28 µM) | 16 (≈ 26.2 µM) | 0.25 (≈ 0.409 µM) | 0.25 (≈ 0.409 µM) | 4 (≈ 6.55 µM) | 4 (≈ 6.55 µM) | 2 (≈ 3.28 µM) | 0.25 (≈ 0.409 µM) | 0.5 (≈ 0.819 µM) | 0.5 (≈ 0.819 µM) | ≤ 0.063 | MIC (strain 20): 0.25 µg/mL (≈ 0.409 µM) |
| CC1(C)[C@H](NC(=O)/C(=N\OCCOc2ccnc(C(=N)N)c2)c2csc(N)n2)C(=O)N1OS(=O)(=O)O [Example 15, (2Z)-2-(2-Amino-1,3-thiazol-4-yl)-2-({2-[(2-carbamimidoylpyridin-4-yl)oxy]ethoxy}imino)-N-[(3S)-2,2-dimethyl-4-oxo-1-(sulfooxy)azetidin-3-yl]ethanamide] | 2 (≈ 3.69 µM) | 2 (≈ 3.69 µM) | 0.5 (≈ 0.922 µM) | 0.5 (≈ 0.922 µM) | 0.5 (≈ 0.922 µM) | 0.5 (≈ 0.922 µM) | ≤ 0.063 | 0.5 (≈ 0.922 µM) | 8 (≈ 14.7 µM) | 8 (≈ 14.7 µM) | 4 (≈ 7.37 µM) | ≤ 0.063 | 0.5 (≈ 0.922 µM) | 8 (≈ 14.7 µM) | 8 (≈ 14.7 µM) | 2 (≈ 3.69 µM) | 1 (≈ 1.84 µM) | 1 (≈ 1.84 µM) | 1 (≈ 1.84 µM) | ≤ 0.063 | MIC (strain 20): 0.5 µg/mL (≈ 0.922 µM) |
| CC1(C)[C@H](NC(=O)/C(=N\OCCOc2cc(C(=N)N)ccn2)c2csc(N)n2)C(=O)N1OS(=O)(=O)O [Example 22, (2Z)-2-(2-Amino-1,3-thiazol-4-yl)-2-({2-[(4-carbamimidoylpyridin-2-yl)oxy]ethoxy}imino)-N-[(3S)-2,2-dimethyl-4-oxo-1-(sulfooxy)azetidin-3-yl]ethanamide] | 4 (≈ 7.37 µM) | 4 (≈ 7.37 µM) | 1 (≈ 1.84 µM) | 0.5 (≈ 0.922 µM) | 1 (≈ 1.84 µM) | 2 (≈ 3.69 µM) | 0.125 (≈ 0.23 µM) | 0.5 (≈ 0.922 µM) | 16 (≈ 29.5 µM) | 16 (≈ 29.5 µM) | 4 (≈ 7.37 µM) | ≤ 0.063 | 1 (≈ 1.84 µM) | 32 (≈ 59 µM) | 8 (≈ 14.7 µM) | 2 (≈ 3.69 µM) | 1 (≈ 1.84 µM) | 1 (≈ 1.84 µM) | 1 (≈ 1.84 µM) | ≤ 0.063 | MIC (strain 20): 1 µg/mL (≈ 1.84 µM) |
| CC1(C)[C@H](NC(=O)/C(=N\OCCOc2ccc(C(=N)NCCN)cc2)c2csc(N)n2)C(=O)N1OS(=O)(=O)O [Example 24, (2Z)-2-[(2-{4-[N-(2-Aminoethyl)carbamimidoyl]phenoxy}ethoxy)imino]-2-(2-amino-1,3-thiazol-4-yl)-N-[(3S)-2,2-dimethyl-4-oxo-1-(sulfooxy)azetidin-3-yl]ethanamide] | 1 (≈ 1.71 µM) | 2 (≈ 3.42 µM) | 0.125 (≈ 0.214 µM) | 0.125 (≈ 0.214 µM) | 0.5 (≈ 0.855 µM) | 2 (≈ 3.42 µM) | ≤ 0.063 | 0.125 (≈ 0.214 µM) | 2 (≈ 3.42 µM) | 2 (≈ 3.42 µM) | 8 (≈ 13.7 µM) | ≤ 0.063 | 0.125 (≈ 0.214 µM) | 4 (≈ 6.84 µM) | 2 (≈ 3.42 µM) | 2 (≈ 3.42 µM) | 0.125 (≈ 0.214 µM) | 0.25 (≈ 0.428 µM) | 0.25 (≈ 0.428 µM) | ≤ 0.063 | MIC (strain 20): 0.25 µg/mL (≈ 0.428 µM) |
| CC1(C)[C@H](NC(=O)/C(=N\OCCOc2cnc(C(=N)N)c(O)c2)c2csc(N)n2)C(=O)N1OS(=O)(=O)O [Example 33, (2Z)-2-(2-Amino-1,3-thiazol-4-yl)-2-({2-[(6-carbamimidoyl-5-hydroxypyridin-3-yl)oxy]ethoxy}imino)-N-[(3S)-2,2-dimethyl-4-oxo-1-(sulfooxy)azetidin-3-yl]ethanamide] | 8 (≈ 14.3 µM) | 4 (≈ 7.16 µM) | 0.25 (≈ 0.448 µM) | 0.25 (≈ 0.448 µM) | 0.5 (≈ 0.895 µM) | 2 (≈ 3.58 µM) | 0.125 (≈ 0.224 µM) | 0.25 (≈ 0.448 µM) | 8 (≈ 14.3 µM) | 8 (≈ 14.3 µM) | 16 (≈ 28.6 µM) | ≤ 0.063 | 0.25 (≈ 0.448 µM) | 16 (≈ 28.6 µM) | 32 (≈ 57.3 µM) | 32 (≈ 57.3 µM) | 0.5 (≈ 0.895 µM) | 0.5 (≈ 0.895 µM) | 0.5 (≈ 0.895 µM) | ≤ 0.063 | MIC (strain 20): 0.25 µg/mL (≈ 0.448 µM) |
| CC1(C)[C@H](NC(=O)/C(=N\OCCOc2ccc(C3=NCCN3)cc2)c2csc(N)n2)C(=O)N1OS(=O)(=O)O [Example 25, (2Z)-2-(2-Amino-1,3-thiazol-4-yl)-2-({2-[4-(4,5-dihydro-1H-imidazol-2-yl)phenoxy]ethoxy}imino)-N-[(3S)-2,2-dimethyl-4-oxo-1-(sulfooxy)azetidin-3-yl]ethanamide] | 2 (≈ 3.52 µM) | 2 (≈ 3.52 µM) | 0.125 (≈ 0.22 µM) | 0.125 (≈ 0.22 µM) | 0.125 (≈ 0.22 µM) | 2 (≈ 3.52 µM) | ≤ 0.063 | 0.125 (≈ 0.22 µM) | 2 (≈ 3.52 µM) | 4 (≈ 7.05 µM) | 8 (≈ 14.1 µM) | ≤ 0.063 | 0.125 (≈ 0.22 µM) | 4 (≈ 7.05 µM) | 4 (≈ 7.05 µM) | 4 (≈ 7.05 µM) | 0.25 (≈ 0.44 µM) | 0.25 (≈ 0.44 µM) | 0.25 (≈ 0.44 µM) | ≤ 0.063 | MIC (strain 20): 0.125 µg/mL (≈ 0.22 µM) |
